Assay results: patent US7176199B2, “Aryl-substituted alicyclic compound and medical composition comprising the same” (Dainippon Pharmaceutical Co., Ltd., priority 2001, dated 2007)
Like-named read-outs stand apart in the source and are kept apart here.

How the values were obtained:
[1] = target: T1, αvβ3 integrin (Homo sapiens, UniProt P05106+P06756); assay: Assay for the inhibition of αvβ3 integrin binding (vitronectin as ligand); set-up: purchased Chemicon International, Inc., USA; details: inhibition of specific binding of biotinylated human vitronectin to immobilized αvβ3 integrin
T1 sequence (P06756 31-889 limits assumed): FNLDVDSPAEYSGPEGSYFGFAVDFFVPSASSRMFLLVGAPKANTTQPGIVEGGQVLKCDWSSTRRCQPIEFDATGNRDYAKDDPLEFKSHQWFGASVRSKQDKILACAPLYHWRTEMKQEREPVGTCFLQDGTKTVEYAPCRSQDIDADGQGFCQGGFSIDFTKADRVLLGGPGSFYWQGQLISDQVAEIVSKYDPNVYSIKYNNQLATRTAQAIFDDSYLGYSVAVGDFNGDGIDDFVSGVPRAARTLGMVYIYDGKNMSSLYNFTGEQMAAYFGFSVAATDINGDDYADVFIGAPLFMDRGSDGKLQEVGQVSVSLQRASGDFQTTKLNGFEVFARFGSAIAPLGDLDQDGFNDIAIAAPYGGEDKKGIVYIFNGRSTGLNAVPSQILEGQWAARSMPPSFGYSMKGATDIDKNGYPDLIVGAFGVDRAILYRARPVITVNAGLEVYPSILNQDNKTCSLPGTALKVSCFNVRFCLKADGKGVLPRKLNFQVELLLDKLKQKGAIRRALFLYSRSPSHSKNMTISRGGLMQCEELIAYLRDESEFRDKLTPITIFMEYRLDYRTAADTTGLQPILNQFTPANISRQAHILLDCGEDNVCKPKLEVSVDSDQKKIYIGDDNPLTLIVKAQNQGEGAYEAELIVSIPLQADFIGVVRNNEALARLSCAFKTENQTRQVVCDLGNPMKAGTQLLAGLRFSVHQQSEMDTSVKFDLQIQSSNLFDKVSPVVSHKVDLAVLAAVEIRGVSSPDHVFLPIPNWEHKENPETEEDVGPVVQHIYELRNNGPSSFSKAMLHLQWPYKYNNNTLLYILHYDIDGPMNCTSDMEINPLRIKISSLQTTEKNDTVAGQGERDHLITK
T1 sequence (P06756 891-1048 partner limits assumed): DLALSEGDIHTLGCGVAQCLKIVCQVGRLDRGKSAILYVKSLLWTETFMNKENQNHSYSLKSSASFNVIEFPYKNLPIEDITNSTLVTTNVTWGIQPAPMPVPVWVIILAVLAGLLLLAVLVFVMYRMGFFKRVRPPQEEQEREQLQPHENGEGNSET
T1 sequence (P05106 27-788): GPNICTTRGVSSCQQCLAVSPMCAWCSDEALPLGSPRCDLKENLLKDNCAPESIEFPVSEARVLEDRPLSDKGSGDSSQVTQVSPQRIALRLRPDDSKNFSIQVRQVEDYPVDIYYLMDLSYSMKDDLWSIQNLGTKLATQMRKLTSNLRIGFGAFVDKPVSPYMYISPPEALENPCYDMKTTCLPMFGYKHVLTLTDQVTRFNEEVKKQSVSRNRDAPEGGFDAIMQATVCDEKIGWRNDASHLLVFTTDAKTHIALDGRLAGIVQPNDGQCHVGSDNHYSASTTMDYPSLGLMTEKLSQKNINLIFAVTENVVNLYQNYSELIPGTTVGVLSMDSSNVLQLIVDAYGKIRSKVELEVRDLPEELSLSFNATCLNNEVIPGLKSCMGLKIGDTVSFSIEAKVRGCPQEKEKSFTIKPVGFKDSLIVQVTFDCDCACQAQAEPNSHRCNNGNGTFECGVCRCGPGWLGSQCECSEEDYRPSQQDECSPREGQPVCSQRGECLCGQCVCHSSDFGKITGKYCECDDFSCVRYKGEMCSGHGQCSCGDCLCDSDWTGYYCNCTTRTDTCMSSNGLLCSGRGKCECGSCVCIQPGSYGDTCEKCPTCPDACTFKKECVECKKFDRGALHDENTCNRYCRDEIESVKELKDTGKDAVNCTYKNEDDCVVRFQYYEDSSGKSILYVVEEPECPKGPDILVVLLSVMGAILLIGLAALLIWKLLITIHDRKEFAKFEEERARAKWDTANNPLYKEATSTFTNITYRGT
Procedure: Experiment 1: Assay for the Inhibition of αvβ3 integrin binding
This experiment was carried out based on the method described in […].
Purified human αvβ3 integrin (Chemicon International, Inc., USA) was adjusted to a concentration of 1 μg/ml with TBS^++ [20 mM Tris-HCl (pH 7.4), 150 mM NaCl, 1 mM CaCl2, 1 mM MgCl2], and the diluted solution was added to plates (Labsystems, Finland) at 50 μl/well. The plate was left at 4° C. overnight for immobilization of the αvβ3 integrin. All subsequent steps were done at 25° C., and the procedure for each well was described hereafter.
The solution was discarded, and then 200 μl of TBS^++ containing 1% BSA (Wako Pure Chemical Industries, Ltd., Japan) was added to the well and left for one hour for blocking. The well was washed with a wash solution (TBS^++ containing 0.01% Tween 20) 4 times, and 50 μl of a reaction solution (TBS^++ containing 0.1% BSA and 0.01% Tween 20) was added to the well. Subsequently, 25 μl of a test compound solution adjusted to each concentration with the reaction solution was added, and then mixed with 25 μl of biotinylated (Amersham Pharmacia Biotech, UK) human vitronectin (Gibco BRL, USA) adjusted to 0.4 μg/ml with the reaction solution. The mixture was reacted for 2 hours. After washing 4 times with the wash solution, 100 μl of peroxidase-labeled streptoavidin (Amersham Pharmacia Biotech, UK) diluted 1:500 with the reaction solution was added to the well. Following 30 minutes reaction, the well was washed 4 times with the wash solution, and 100 μl of a TMB substrate solution (Bio-Rad Laboratories, USA) was added to the well. Color was developed for 20 minutes and the reaction was stopped by adding 100 μl of 0.5 M sulfuric acid.
(§1) The absorbance at 450 nm was measured with a plate reader (Molecular Devices, USA) to obtain a total binding. To obtain a nonspecific binding, EDTA adjusted to 20 mM with the reaction solution was added instead of the test compound solution. A specific binding was calculated by subtracting the nonspecific binding from the total binding.

[2] = target: T2, αIIbβ3 integrin (Homo sapiens, UniProt P05106+P08514); assay: Assay for the inhibition of αIIbβ3 integrin binding (fibrinogen as ligand, integrin captured from platelet lysate); details: inhibition of specific binding of biotinylated fibrinogen to αIIbβ3 integrin from human platelet lysate
T2 construct: from tissue; host or cells: human platelets (Triton X-100 lysate)
T2 sequence (P08514 32-887 limits assumed): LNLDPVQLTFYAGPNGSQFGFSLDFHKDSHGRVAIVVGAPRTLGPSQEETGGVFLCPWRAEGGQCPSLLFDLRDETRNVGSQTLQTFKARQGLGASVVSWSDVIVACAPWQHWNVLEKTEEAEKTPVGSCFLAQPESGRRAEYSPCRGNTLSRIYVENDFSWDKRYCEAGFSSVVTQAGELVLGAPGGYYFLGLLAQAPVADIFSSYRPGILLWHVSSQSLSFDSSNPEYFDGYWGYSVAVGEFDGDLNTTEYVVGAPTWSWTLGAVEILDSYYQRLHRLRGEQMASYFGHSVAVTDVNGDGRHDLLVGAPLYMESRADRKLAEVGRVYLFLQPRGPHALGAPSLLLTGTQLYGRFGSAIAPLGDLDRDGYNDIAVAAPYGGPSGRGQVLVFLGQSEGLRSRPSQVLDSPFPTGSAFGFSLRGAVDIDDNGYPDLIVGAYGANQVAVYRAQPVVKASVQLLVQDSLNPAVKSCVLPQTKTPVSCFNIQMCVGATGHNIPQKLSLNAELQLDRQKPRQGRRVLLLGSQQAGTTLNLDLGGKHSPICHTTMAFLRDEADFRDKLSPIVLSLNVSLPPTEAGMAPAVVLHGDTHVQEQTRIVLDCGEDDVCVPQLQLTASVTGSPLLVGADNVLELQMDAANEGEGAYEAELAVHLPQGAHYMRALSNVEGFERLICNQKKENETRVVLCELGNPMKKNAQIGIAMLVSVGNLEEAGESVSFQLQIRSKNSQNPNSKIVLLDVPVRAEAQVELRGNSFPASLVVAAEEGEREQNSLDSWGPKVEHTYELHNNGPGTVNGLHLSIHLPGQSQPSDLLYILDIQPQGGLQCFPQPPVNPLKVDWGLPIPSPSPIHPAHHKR
T2 sequence (P08514 891-1039 partner limits assumed): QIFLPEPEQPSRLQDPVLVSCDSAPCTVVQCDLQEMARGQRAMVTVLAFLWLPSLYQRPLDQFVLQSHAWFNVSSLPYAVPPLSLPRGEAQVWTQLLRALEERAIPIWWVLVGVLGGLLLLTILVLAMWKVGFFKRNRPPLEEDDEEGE
T2 sequence (P05106 27-788): as the sequence (P05106 27-788) above
Procedure: Experiment 2: Assay for the Inhibition of αIIbβ3 Integrin Binding
This experiment was carried out based on the method described in Thromb. Haemostasis, 75, 339 (1996), Blood, 93, 2559 (1999), using fibrinogen as a ligand. According to the method described in the above literatures, assay for the inhibition of αIIbβ3 integrin binding can be achieved by capturing αIIbβ3 integrin from platelet lysate with the use of an activated antibody against αIIbβ3 integrin.
Human platelets were isolated in a conventional manner. At 25° C., the isolated platelets were adjusted to a concentration of 1.25×10^9/ml with TBS+[50 mM Tris-HCl (pH 7.4), 150 mM NaCl, 2 mM CaCl2], and then ⅛ volume of TBS^+ containing 2 mM leupepsin and 10 mM PMSF was added and stirred gently. Nest, 1/9 volume of TBS+ containing 10% Triton X-100 was added and stirred gently. After standing on ice for 30 minutes, a platelet lysate was prepared from the mixture by discarding the insoluble fraction with centrifugation (10,000 g, 15 minutes).
Anti-mouse IgG goat antibody (Jackson Immunoresearch Laboratories, Inc., USA) was adjusted to a concentration of 5 μg/ml with sodium carbonate buffer (pH 9.6) and added to plates at 50 μl/well. The plate was left at 4° C. overnight for immobilization of the antibody. All subsequent steps were done at 25° C., and the procedure for each well was described hereafter.
The well was washed once with TBS^+, and then 200 μl of TBS^+ containing 5% BSA was added to the well and left for one hour for blocking. The well was washed with a reaction solution (TBS^+ containing 0.1% BSA and 0.05% Triton X-100) 4 times, and then 50 μl of anti-human αIIbβ3 integrin activated monoclonal antibody (TAKARA SHUZO CO., LTD, Japan, PT25-2 strain) adjusted to 5 μg/ml with the reaction solution was added to the well. After one hour reaction, the well was washed 4 times with the reaction solution, and 50 μl of the platelet lysate diluted 1:2 with the reaction solution was added to the well. Following 2 hours reaction, the well was washed 4 times with the reaction solution, and 50 μl of the reaction solution was added to the well. Subsequently, 25 μl of a test compound solution adjusted to each concentration with the reaction solution was added, and then mixed with 25 μl of biotinylated fibrinogen (Calbiochem, Germany) adjusted to 2 μg/ml with the reaction solution. The mixture was reacted for one hour. After washing 4 times with the reaction solution, 100 μl of alkaline phosphatase-labeled streptoavidin (Gibco BRL, USA) diluted 1:500 with the reaction solution was added to the well. Following 30 minutes reaction, the well was washed 4 times with the wash solution. Next, 50 μl of the NaDPH solution (Invitrogen, former company name: Gibco BRL, USA) was added and reacted for 20 minutes, and then 50 μl of an amplification solution containing diaphorase and alcohol dehydrogenase (Invitrogen, former company name: Gibco BRL, USA) was added. Color was developed for 20 minutes and the reaction was stopped by adding 50 μl of 0.5 M sulfuric acid.
as §1, with “495” for “450”, “reader” for “reader (Molecular Devices, USA)”

[3] = target: GPIIb/IIIa (Homo sapiens, UniProt P05106+P08514); details: read-out: GPIIb/IIIa inhibitory activity IC50 value, cited from earlier work
GPIIb/IIIa, sequence (P08514 32-887 limits assumed): as the sequence (P08514 32-887 limits assumed) above
GPIIb/IIIa, sequence (P08514 891-1039 partner limits assumed): as the sequence (P08514 891-1039 partner limits assumed) above
GPIIb/IIIa, sequence (P05106 27-788): as the sequence (P05106 27-788) above

[4] = target: T1, αvβ3 integrin; details: reported in WO 99/52872; read-out: αvβ3 integrin inhibitory activity IC50 value; cited from earlier work

IC50 [1] [nM]	IC50 [2] [nM]	SMILES	IC50 ([3]; reported in WO 99/38849) [nM]	IC50 [4] [nM]	IC50 ([3]; reported in WO 99/52872) [nM]
0.041	380	O=C(N[C@@H](CNC(=O)N1CCN(c2cccc(NC3=NCCCN3)c2)CC1)C(=O)O)OCc1ccccc1 [Ex. 145, (2S)-2-benzyloxycarbonylamino-3-[[4-[3-(1,4,5,6-tetrahydropyrimidin-2-yl)aminophenyl]piperazin-1-yl]carbonylamino]-propanoic acid]			
1	4200	O=C(C[C@H](NC(=O)OCc1ccccc1)C(=O)O)NC1CCN(c2cccc(NC3=NCCCN3)c2)CC1 [Ex. 146, (2S)-2-benzyloxycarbonylamino-4-[[1-[3-(1,4,5,6-tetrahydropyrimidin-2-yl)aminophenyl]piperidin-4-yl]amino]-4-oxobutanoic acid]			
0.17	420	O=C(N[C@@H](CCC(=O)N1CCC(c2cccc(NC3=NCCCN3)c2)CC1)C(=O)O)OCc1ccccc1 [Ex. 148, (2S)-2-benzyloxycarbonylamino-5-[4-[3-(1,4,5,6-tetrahydropyrimidin-2-yl)aminophenyl]piperidin-1-yl]-5-oxopentanoic acid]			
0.081	52	Cc1cc(N2CCC(C(=O)NC[C@H](NC(=O)OCc3ccccc3)C(=O)O)CC2)nc(NC2=NCCCN2)n1 [Ex. 150, (2S)-2-benzyloxycarbonylamino-3-[[1-[2-(1,4,5,6-tetrahydropyrimidin-2-yl)amino-6-methylpyrimidin-4-yl]piperidin-4-yl]-carbonylamino]propanoic acid]			
0.055	13	COc1ccc(NC2=NCCCN2)cc1N1CCC(C(=O)NC[C@H](NC(=O)OCc2ccccc2)C(=O)O)CC1 [Ex. 152, (2S)-2-benzyloxycarbonylamino-3-[[1-[2-methoxy-5-(1,4,5,6-tetrahydropyrimidin-2-yl)aminophenyl]piperidin-4-yl]carbonylamino]propanoic acid]			
0.14	94	Cc1ccc(N2CCC(C(=O)NC[C@H](NC(=O)OCc3ccccc3)C(=O)O)CC2)cc1NC1=NCCCN1 [Ex. 153, (2S)-2-benzyloxycarbonylamino-3-[[1-[4-methyl-3-(1,4,5,6-tetrahydropyrimidin-2-yl)aminophenyl]piperidin-4-yl]-carbonylamino]propanoic acid]			
0.096	530	COc1ccc(NC2=NCCCN2)cc1N1CCN(C(=O)CC[C@H](NC(=O)OCc2ccccc2)C(=O)O)CC1 [Ex. 154, (2S)-2-benzyloxycarbonylamino-5-[4-[2-methoxy-5-(1,4,5,6-tetrahydropyrimidin-2-yl)aminophenyl]piperazin-1-yl]-5-oxopentanoic acid]			
0.055	43	O=C(N[C@@H](CNC(=O)C1CCN(c2cc(F)cc(NC3=NCCCN3)c2)CC1)C(=O)O)OCc1ccccc1 [Ex. 156, (2S)-2-benzyloxycarbonylamino-3-[[1-[5-fluoro-3-(1,4,5,6-tetrahydropyrimidin-2-yl)aminophenyl]piperidin-4-yl]carbonylamino]-propanoic acid]			
0.14	750	O=C(N[C@@H](CCC(=O)N1CCN(c2cc(F)cc(NC3=NCCCN3)c2)CC1)C(=O)O)OCc1ccccc1 [Ex. 158, (2S)-2-benzyloxycarbonylamino-5-[4-[5-fluoro-3-(1,4,5,6-tetrahydropyrimidin-2-yl)aminophenyl]piperazin-1-yl]-5-oxopentanoic acid]			
0.06	86	O=C(N[C@@H](CNC(=O)C1CCN(c2cc(NC3=NCCCN3)ccn2)CC1)C(=O)O)OCc1ccccc1 [Ex. 159, (2S)-2-benzyloxycarbonylamino-3-[[1-[4-(1,4,5,6-tetrahydropyrimidin-2-yl)aminopyridin-2-yl]piperidin-4-yl]carbonylamino]-propanoic acid]			
0.046	67	O=C(N[C@@H](CNC(=O)C1CCN(c2cc(NC3=NCC(F)CN3)ccn2)CC1)C(=O)O)OCc1ccccc1 (stereo partly drawn) [Ex. 160, (2S)-2-benzyloxycarbonylamino-3-[[1-[4-(5-fluoro-1,4,5,6-tetrahydropyrimidin-2-yl)aminopyridin-2-yl]piperidin-4-yl]carbonylamino]-propanoic acid]			
0.1	77	CC(C)COC(=O)N[C@@H](CNC(=O)C1CCN(c2cc(NC3=NCCCN3)ccn2)CC1)C(=O)O [Ex. 161]			
0.21	> 1000	CN(C[C@H](NC(=O)OCc1ccccc1)C(=O)O)C(=O)C1CCN(c2cccc(NC3=NCCCN3)c2)CC1 [Ex. 162, (2S)-2-benzyloxycarbonylamino-3-[[1-[3-(1,4,5,6-tetrahydropyrimidin-2-yl)aminophenyl]piperidin-4-yl]-N-methylcarbonylamino]propanoic acid]			
		O=C(NC[C@H](NS(=O)(=O)c1ccccc1)C(=O)O)c1ccc(N2CCN(C3=NCCCN3)CC2)c(Cl)c1 [Example A-1, (2S)-2-benzenesulfonylamino-3-[3-chloro-4-[4-(1,4,5,6-tetrahydropyrimidin-2-yl)piperazin-1-yl]benzoylamino]propanoic acid]	≤ 0.2		
		O=C(NC[C@H](NS(=O)(=O)c1ccccc1)C(=O)O)c1ccc(N2CCC(NC3=NCCCN3)CC2)c(F)c1 [Example A-2, (2S)-2-benzenesulfonylamino-3-[3-fluoro-4-[[4-(1,4,5,6-tetrahydropyrimidin-2-yl)amino]-piperidin-1-yl]benzoylamino]propanoic acid]		≤ 1	≤ 1
